This experiment concerns the target T1, purified STEP46 enzyme (Homo sapiens, UniProt P54829).
T1 sequence (P54829 1-565): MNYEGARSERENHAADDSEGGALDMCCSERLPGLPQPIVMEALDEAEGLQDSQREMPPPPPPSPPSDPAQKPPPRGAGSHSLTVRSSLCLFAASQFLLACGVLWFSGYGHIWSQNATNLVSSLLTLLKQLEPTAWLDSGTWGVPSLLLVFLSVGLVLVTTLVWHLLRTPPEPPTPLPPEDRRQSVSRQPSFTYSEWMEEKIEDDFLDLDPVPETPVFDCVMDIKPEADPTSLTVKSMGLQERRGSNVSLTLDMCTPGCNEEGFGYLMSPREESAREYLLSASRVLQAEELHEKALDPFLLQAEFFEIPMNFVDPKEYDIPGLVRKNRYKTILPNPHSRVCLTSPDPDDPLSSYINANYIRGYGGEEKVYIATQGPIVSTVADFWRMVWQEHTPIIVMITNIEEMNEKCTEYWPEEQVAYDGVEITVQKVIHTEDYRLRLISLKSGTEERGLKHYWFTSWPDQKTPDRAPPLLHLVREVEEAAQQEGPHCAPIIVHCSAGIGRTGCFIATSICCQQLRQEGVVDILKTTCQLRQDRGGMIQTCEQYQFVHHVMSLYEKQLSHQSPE
The experiment in a line: STEP46 biochemical assay (DiFMUP fluorescence phosphatase assay). As to conditions: DiFMUP 10 μM, read-out: STEP IC50. As for the experimental part:
STEP46 Biochemical Assays
Serial dilutions of compounds were performed in 100% DMSO and 1 uL of compounds were dispensed into 384-well black polystyrene plates (Corning, NY). Compounds were incubated with 24 uL of buffer containing 50 mM Hepes, 1 mM DTT, 0.02% Brij35, 1 ng/well purified STEP46 enzyme for 30 min at room temperature. The reaction was initiated by addition of 25 uL of DiFMUP (6, 8-difluoro-4-methylumbelliferyl phosphate) (InVitrogen, CA) with a final concentration of 10 μM and incubated at 27° C. for 90 min. Final DMSO concentration is 2%. Plates were read with florescence intensity at excitation/emission of 360/460 nm using a PheraStar plate reader (BMG Labtech, NC).
Data were expressed as percentage (%) inhibition of enzyme activity. 0% inhibition is defined as the RFUs (relative fluorescence units) in the absence of compounds and 100% inhibition is defined as RFUs in the absence of STEP46 enzyme. IC50 values of compounds with inhibitory activity against STEP46 were determined by GraphPad Prism (version 4.03) using four parameter logistic equation. Some compounds act as activators. For compounds showing STEP46 enzymatic activation, data are represented as percentage of inhibition but with negative values at three representative concentrations (25, 50 and 100 uM).
The term IC50 denotes the concentration that gives 50% inhibition. For the molecule `COc1ccc2nc(-c3cccnc3)nc(Nc3ccc4ncoc4c3)c2c1` [Compound 341], the half-maximal inhibitory concentration (IC50) is 1000 to 10000 nM.

`COc1ccc2nc(-c3cccnc3)nc(Nc3cccc(Br)c3)c2c1` [Compound 425]: the 50% inhibitory concentration (IC50) lay in the range of 1000 to 10000 nM. As for `COc1cccc(-c2ccc3nc(-c4cccnc4)nc(Oc4ccccc4C(N)=O)c3c2)c1` [Compound 393], the 50% inhibitory concentration (IC50) lay within 1000 to 10000 nM. Regarding `CNc1nc(-c2cccnc2)nc2cc(-c3ccccc3)ccc12` [Compound 1348], the IC50 is greater than 10000 nM.

On to `Fc1ccc(Nc2nc(-c3cccnc3)nc3cc(-c4cccnc4)ccc23)cc1Cl` [Compound 677], for which the IC50 is greater than 10000 nM.

As for `COc1ccc2nc(-c3cccnc3)nc(Nc3ccc(-c4ccc(Cl)cc4)cc3)c2c1` [Compound 424], the IC50 fell in the range of 1000 to 10000 nM. For the molecule `Fc1ccc(Nc2nc(-c3ccnnc3)nc3cc(Cl)ccc23)cc1Cl` [Compound 1201], the IC50 lay in the range of 1000 to 10000 nM. Consider `Cc1cccc(-c2ccc3c(Nc4ccc(F)c(Cl)c4)nc(-c4cccnc4)nc3c2)c1` [Compound 696], for which the IC50 is less than 1000 nM. Regarding `CC(=O)c1ccc(-c2ccc3nc(-c4cccnc4)nc(N)c3c2)cc1` [Compound 1327], the half-inhibitory concentration (IC50) is greater than 10000 nM. Consider `COc1ccc2nc(-c3cccnc3)nc(Nc3ccc4scnc4c3)c2c1` [Compound 320], for which the half-inhibitory concentration (IC50) lay within 1000 to 10000 nM.

On to `CNc1nc(-c2cccnc2)nc2c(C)cc(-c3ccccc3C#N)cc12` [Compound 1284], for which the half-maximal inhibitory concentration (IC50) was 1000 to 10000 nM. Consider `CNc1nc(-c2cccnc2)nc2cc(-c3ccc(Cl)cc3)ccc12` [Compound 1354], for which the half-inhibitory concentration (IC50) is 1000 to 10000 nM. Take `CNc1nc(-c2cccnc2)nc2cc(-c3ccc(F)c(F)c3)c(C)cc12` [Compound 1407]: the IC50 fell in the range of 1000 to 10000 nM. Turning to `CNc1nc(-c2cccnc2)nc2ccc(-c3ccc(F)c(C(F)(F)F)c3)cc12` [Compound 1401], the concentration for half-maximal inhibition (IC50) was in the range of 1000 to 10000 nM. In the case of `COc1ccc(Cl)c(Nc2nc(-c3cccnc3)nc3ccc(OC)cc23)c1` [Compound 932], the half-maximal inhibitory concentration (IC50) lay in the range of 1000 to 10000 nM. Turning to `CNc1nc(-c2cccnc2)nc2ccc(-c3cccc(OC)c3)cc12` [Compound 1248], the IC50 is 1000 to 10000 nM. Regarding `COc1ccc2nc(-c3cccnc3)nc(Nc3ccc4c(c3)OCCO4)c2c1` [Compound 297], the IC50 was greater than 10000 nM. With `Clc1cc(Cl)cc(Nc2nc(-c3ccnnc3)nc3cc(Cl)ccc23)c1` [Compound 1205], the IC50 fell in the range of 1000 to 10000 nM. The same measure for `Fc1ccc(Nc2nc(-c3cccnc3)nc3ccc(-c4ccoc4)cc23)cc1Cl` [Compound 647]: 1000 to 10000 nM; for `Cc1cc(Cl)cc2c(Nc3cccc(C#N)c3)nc(-c3cnccn3)nc12` [Compound 1228]: 1000 to 10000 nM; for `COc1cncc(-c2ccc3nc(-c4cccnc4)nc(Nc4ccc(F)c(Cl)c4)c3c2)c1` [Compound 660]: less than 1000 nM. With `O=[N+]([O-])c1cccc(-c2ccc3nc(-c4cccnc4)nc(Nc4ccc(F)c(Cl)c4)c3c2)c1` [Compound 635] the figure was less than 1000 nM; with `CNc1nc(-c2cccnc2)nc2ccc(-c3cc(OC)ccc3F)cc12` [Compound 1400], 1000 to 10000 nM. On to `CNc1nc(-c2ccncc2)nc2ccc(-c3ccc(F)cc3F)cc12` [Compound 1467], for which the IC50 fell in the range of 1000 to 10000 nM. As to `COc1ncc(-c2ccc3nc(-c4cccnc4)nc(Nc4ccc(F)c(Cl)c4)c3c2)cn1` [Compound 666], the IC50 was less than 1000 nM. With `COc1ccc2nc(-c3ccnnc3)nc(Nc3ccccc3C(N)=O)c2c1` [Compound 1198], the IC50 lay within 1000 to 10000 nM. Turning to `COc1ccc2nc(-c3cccnc3)nc(Nc3ccc4oc(=O)[nH]c4c3)c2c1` [Compound 317], the IC50 lay within 1000 to 10000 nM. Consider `COc1cc(OC)cc(-c2ccc3nc(-c4cccnc4)nc(Nc4ccc(F)c(Cl)c4)c3c2)c1` [Compound 642], for which the concentration for half-maximal inhibition (IC50) is less than 1000 nM. `COc1ccc2nc(-c3cccnc3)nc(Nc3nc(-c4ccc(Br)cc4)cs3)c2c1` [Compound 415]: the IC50 is 1000 to 10000 nM.

Take `FC(F)Oc1cccc(Nc2nc(-c3cncnc3)nc3ccccc23)c1` [Compound 1211]: the IC50 is greater than 10000 nM. With `COc1ccc2nc(-c3cccnc3)nc(Nc3ccc(C)c(C)c3)c2c1` [Compound 923], the IC50 is 1000 to 10000 nM. With `COc1ccc2nc(-c3ccnnc3)nc(Nc3ccc(Cl)c(Cl)c3)c2c1` [Compound 1184] the figure was 1000 to 10000 nM; with `CN(C)c1nc(-c2cccnc2)nc2ccc(-c3cccc(F)c3)cc12` [Compound 1324], 1000 to 10000 nM; with `CC(=O)Nc1nc(-c2cccnc2)nc2ccc(-c3cccc(F)c3F)cc12` [Compound 1369], 1000 to 10000 nM.

On to `COc1ccc2nc(-c3cccnc3)nc(Nc3nnc(-c4ccc(F)cc4)s3)c2c1` [Compound 423], for which the half-inhibitory concentration (IC50) fell in the range of 1000 to 10000 nM. In the case of `Cc1cccc2c(Nc3cc(Cl)cc(Cl)c3)nc(-c3cnccn3)nc12` [Compound 1180], the concentration for half-maximal inhibition (IC50) lay in the range of 1000 to 10000 nM. With `Fc1ccc(Nc2nc(-c3cnccn3)nc3ccccc23)cc1Cl` [Compound 1219] the figure was 1000 to 10000 nM; with `Fc1ccc(Nc2nc(-c3cccnc3)nc3ccc(-c4cccc(Cl)c4)cc23)cc1Cl` [Compound 629], 1000 to 10000 nM. Take `COc1ccc2nc(-c3cccnc3)nc(Nc3ccccc3C(=O)NCc3occc3C)c2c1` [Compound 901]: the IC50 was 1000 to 10000 nM. Consider `COc1ccc2nc(-c3cccnc3)nc(Oc3ccc(Cl)c(Cl)c3)c2c1` [Compound 344], for which the half-maximal inhibitory concentration (IC50) is 1000 to 10000 nM. Consider `COc1ccc2nc(-c3cccnc3)nc(Nc3nc(-c4cccc(C)c4)cs3)c2c1` [Compound 440], for which the IC50 lay within 1000 to 10000 nM. As to `COc1ccc2nc(-c3cccnc3)nc(Nc3ccc4ccsc4c3)c2c1` [Compound 309], the 50% inhibitory concentration (IC50) was in the range of 1000 to 10000 nM. Take `O=C(c1ccc(-c2ccc3nc(-c4cccnc4)nc(Nc4ccc(F)c(Cl)c4)c3c2)cc1)N1CCCCC1` [Compound 665]: the half-maximal inhibitory concentration (IC50) is 1000 to 10000 nM. Take `Cc1cccc2c(Nc3cccc(OC(F)F)c3)nc(-c3ccnnc3)nc12` [Compound 1168]: the concentration for half-maximal inhibition (IC50) lay within 1000 to 10000 nM. The same measure for `CNc1nc(-c2cccnc2)nc2cc(-c3ccc(OC)cc3)c(C)cc12` [Compound 1413]: 1000 to 10000 nM. As for `Clc1cc(Cl)cc(Nc2nc(-c3ccnnc3)nc3ccccc23)c1` [Compound 1223], the IC50 was less than 1000 nM.

In the case of `COc1ccc2nc(-c3cccnc3)nc(Nc3nc(-c4ccc(C)cc4)cs3)c2c1` [Compound 429], the half-inhibitory concentration (IC50) was less than 1000 nM. The same measure for `Clc1ccc2c(Nc3ccc(Cl)c(Cl)c3)nc(-c3ccnnc3)nc2c1` [Compound 1204]: greater than 10000 nM. As for `CN(C)c1nc(-c2cccnc2)nc2cc(-c3cc(F)ccc3F)ccc12` [Compound 1396], the IC50 was 1000 to 10000 nM.

In the case of `CCOc1cccc(-c2ccc3nc(-c4cccnc4)nc(Nc4ccc(F)c(Cl)c4)c3c2)c1` [Compound 657], the half-maximal inhibitory concentration (IC50) was less than 1000 nM. With `COc1ccc2nc(-c3cccnc3)nc(Nc3nc(-c4cccc(F)c4)cs3)c2c1` [Compound 441], the IC50 is 1000 to 10000 nM. In the case of `NC(=O)c1ccccc1Nc1nc(-c2cccnc2)nc2cc(-c3cccc(F)c3)ccc12` [Compound 700], the IC50 was less than 1000 nM. With `CNc1nc(-c2cccnc2)nc2cc(-c3ccc(C#N)cc3)ccc12` [Compound 1365] the figure was 1000 to 10000 nM. Consider `CN(C)c1ccc2nc(-c3ccnnc3)nc(Nc3ccccc3C(N)=O)c2c1` [Compound 1151], for which the IC50 fell in the range of 1000 to 10000 nM. Take `Fc1ccc(Nc2nc(-c3ccnnc3)nc3cc(Cl)ccc23)cc1F` [Compound 1202]: the IC50 was in the range of 1000 to 10000 nM.

On to `CNc1nc(-c2cccnc2)nc2c(C)c(-c3ccc(F)c(F)c3)ccc12` [Compound 1445], for which the IC50 fell in the range of 1000 to 10000 nM.

Regarding `CNc1nc(-c2cccnc2)nc2cc(-c3ccccc3Cl)ccc12` [Compound 1352], the 50% inhibitory concentration (IC50) is greater than 10000 nM. Regarding `COc1ccc2nc(-c3cccnc3)nc(Nc3nc(-c4ccccc4)cs3)c2c1` [Compound 416], the IC50 is less than 1000 nM.

For the molecule `CN(C)c1ccc(-c2ccc3nc(-c4cccnc4)nc(Nc4ccc(F)c(Cl)c4)c3c2)cc1` [Compound 668], the IC50 was less than 1000 nM.

Take `COc1ccc2nc(-c3cccnc3)nc(Nc3ccccc3C(=O)NC3CCc4ccccc43)c2c1` (stereo not drawn) [Compound 898]: the IC50 is greater than 10000 nM. Consider `FC(F)(F)Oc1cccc(Nc2nc(-c3ccnnc3)nc3ccccc23)c1` [Compound 1182], for which the IC50 is 1000 to 10000 nM.

Regarding `COc1cc(-c2ccc3nc(-c4cccnc4)nc(Nc4ccc(F)c(Cl)c4)c3c2)cc(C(F)(F)F)c1` [Compound 664], the concentration for half-maximal inhibition (IC50) lay in the range of 1000 to 10000 nM.

As for `CN(C)c1ccc2nc(-c3ccnnc3)nc(Nc3ccc(F)c(Cl)c3)c2c1` [Compound 1152], the IC50 was 1000 to 10000 nM.

(Values after US9630947B2, “Therapeutic compounds and related methods of use” (OTSUKA PHARMACEUTICAL CO., LTD., priority 2009, dated 2017).)
